Tests used:
Euphorbia helioscopia = assay: Activity assay of compositions, post-emergence spray of stems and leaves; assay type: in vivo; settings: 21 days
From the text: (§1) The required active ingredient B was purchased from a reagent company or a technical material manufacturer or synthesized by a conventional method. The active ingredient A was Compound 74 in Table 1. The technical materials were all dissolved with acetone solvents and diluted with aqueous solution of 0.1% Tween® 80 emulsifier, which should be used immediately after dilution.
(§2) Weeds were cultivated by a pot culture method. […] Weed seeds with plump and uniform grains were selected, soaked in lukewarm water at 25° C. for 6 hours, and accelerated to germinate in a 28° C. biochemical incubator (in darkness). The weed seeds that had just germinated were evenly placed on the surface of the soil and then covered with 0.5-1 cm soil according to the sizes of seeds.
The weeds were cultured in a controllable sunlight greenhouse at 20-30° C., in natural light, and with relative humidity of 57%-72%. The soil was loam with an organic matter content of 1.63%, a pH value of 7.1, alkali-hydrolyzable nitrogen of 84.3 mg/kg, rapidly available phosphorus of 38.5 mg/kg, and rapidly available potassium of 82.1 mg/kg.
(§3) Each treatment was repeated 4 times for 3 pots. Each pot was seeded with 20 weed seeds.
(§4) The drugs were applied once in total in the experiment. When at the stage of 1.5-2 leaves, the weeds were thinned out to maintain 10 strains per pot. Thirty strains were kept in each treatment and then continued to be cultured until the Erigeron canadensis reached 10 cm tall and other weeds in their 3-4 leaf stage for further treatment.
(§5) The well-cultured test materials were evenly placed on a 0.5 m^2 platform and foliage-sprayed by the 3WP-2000-type walking spray tower at a dosage of […] and a spray pressure of 0.3 MPa. After all the drug solution was sprayed, the air valve was closed. And 30 seconds later, the door of the spray tower was opened, and the nutritional bowl was taken out. Next, the air valve was opened, and the spray tube was cleaned by spraying 50 ml of water. The test materials were transferred to and routinely cultured in a greenhouse after the treatment.
(§6) A method for investigating absolute numbers was employed. The whole seedlings of the survival weeds were cut along the soil surface with a blade, and the fresh weight of the weeds was weighed by an analytical balance. For dead weeds, the fresh weight thereof was considered zero.
(§7) The investigation was performed 21 days after the treatment for once in total.
(§8) The theoretical fresh weight inhibition rate of a mixed combination of each treatment was calculated by the Gowing method (E0=X+Y−X*Y/100). Then compared with the measured inhibition rate (E), the type of the combined action of the combination of the two on weeds was evaluated, which was a synergistic effect when E−E0>10; an antagonistic effect when E−E0<−10%; an additional effect when −10≤E−E0≤100. An optimal ratio was determined according to factors such as the actual control effects, characteristics of herbicides, balance of the formulation, etc. In the formula, X represents the fresh weight inhibition rate of the active ingredient A in a dosage of P; Y represents the fresh weight inhibition rate of the active ingredient B in a dosage of Q. The statistical results are shown in Table 5 below.

Veronica [1] = assay: as above; assay type: in vivo; settings: 21 days
Procedure: as §1, with “The active ingredient A was Compound 74 in Table 1.” left out
as §2, §3, §4, §5, §6, §7
as §8, with “Then compared with the measured inhibition rate (E), the type of the combined action of the combination of the two on weeds was evaluated, which was a synergistic effect when E−E0>10; an antagonistic effect when E−E0<−10%; an additional effect when −10≤E−E0≤100.” left out

Veronica [2] = assay: Post-emergence test on weeds; assay type: in vivo; design: key: 0 = no effect, 9 = completely dead (levels by growth control rate); settings: 30 g a.i./ha, 3 weeks after application
From the text: (§9) The criteria for activity levels of plant damage (i.e., growth control rate) are as follows: • Level 9: completely dead; • Level 8: growth control rate is greater than or equal to 90% and less than 100%; • Level 7: growth control rate is greater than or equal to 80% and less than 90%; • Level 6: growth control rate is greater than or equal to 70% and less than 80%; • Level 5: growth control rate is greater than or equal to 50% and less than 70%; • Level 4: growth control rate is greater than or equal to 30% and less than 50%; • Level 3: growth control rate is greater than or equal to 20% and less than 30%; • Level 2: growth control rate is greater than or equal to 10% and less than 20%; • Level 1: growth control rate is less than 10%; • Level 0: no effect.
(§10) The above growth control rates are fresh weight control rates.
(§11) Monocotyledonous and dicotyledonous weed seeds (Descurainia sophia, Capsella bursa-pastoris, Abutilon theophrasti, Galium spurium, Stellaria media, Lithospermum arvense, Rorippa indica, Alopecurus aequalis, Alopecurus japonicus, Eleusine indica, Beckmannia syzigachne, Sclerochloa dura, Erigeron canadensis, Phleum paniculatum, Veronica, Bromus japonicus, Aegilops tauschii, Phalaris arundinacea, Amaranthus retroflexus, Chenopodium, Commelina communis, Cichorium endivia, Convolvulus arvensis, Cirsium arvense, Solanum nigrum, Acalypha australis, Digitaria sanguinalis, Echinochloa crusgalli, Setaria viridis, Setaria pumila, Leptochloa chinensis, Monochoria vaginalis, Sagittaria trifolia, Schoenoplectiella juncoides, Cyperus rotundus, Cyperus iria, Cyperus difformis, Fimbristylis, Portulaca oleracea, Xanthium sibiricum, Ipomoea nil, Eschenbachia japonica, etc.) and major crop seeds (wheat, maize, paddy rice, soybean, cotton, oilseed rape, millet, sorghum, potato, sesame, castor plant, Chinese cabbage, radish, etc.) were placed in plastic pots filled with soil and then covered with 0.5-2 cm of soil to allow them to grow in a favorable greenhouse environment. Two weeks after sowing, the test plants were treated at the stage of 2-3 leaves. The test compounds of the present invention were individually dissolved with acetone, then added with Tween® 80, with 1.5 L/ha of methyl oleate emulsifiable concentrate as a synergist, diluted into solution of a certain concentration using a certain amount of water, and sprayed to plants using a spray tower. After drug application, the experimental results on weeds were collected after 3 weeks of cultivation in a greenhouse. The compounds were applied at 120, 60, 30, and 15 g a.i./ha in triplicate, and the results were averaged.

Bidens tripartita = assay: Control effect evaluation on weeds in paddy fields; assay type: in vivo; settings: paddy pot, 14th day after treatment, seeds resistant to pyrazosulfuron-ethyl
From the text: as §9, §10
(§12) After paddy field soil was loaded into a 1/1,000,000 ha pot, the seeds of Monochoria vaginalis, Pontederia korsakowii and Bidens tripartita were sowed and gently covered with soil, then left to stand in a greenhouse with water storage of 0.5-1 cm deep. The tuber of Sagittaria trifolia was planted on the next day or 2 days later. The water storage was kept at a depth of 3-4 cm thereafter. When the Monochoria vaginalis, Pontederia korsakowii and Bidens tripartita reached their 0.5-leaf stages and the Sagittaria trifolia reached the primary leaf stage, WP or SC aqueous dilutions of the compounds of the present invention formulated according to customary formulation methods were homogeneously dripped for treatment to the specified effective amount using pipettes.
(§13) The effects were evaluated according to the above-mentioned criteria for activity levels.

Monochoria vaginalis = assay: Control effect evaluation on weeds in paddy fields; assay type: in vivo; settings: paddy pot, 14th day after treatment, seeds resistant to pyrazosulfuron-ethyl
From the text: as §9, §10, §12, §13

Pontederia korsakowii = assay: Control effect evaluation on weeds in paddy fields; assay type: in vivo; settings: paddy pot, 14th day after treatment, seeds resistant to pyrazosulfuron-ethyl
From the text: as §9, §10, §12, §13

[3] = system: paddy rice (japonica rice); settings: in vivo
From the text: as §9, §10
In addition, after being loaded into the 1/1,000,000 ha pot, the paddy field soil was leveled to keep the water storage at a depth of 3-4 cm. The paddy rice (japonica rice) at 3-leaf stage was transplanted at a transplanting depth of 3 cm on the next day. The compounds of the present invention were treated in the same manner as above on the 5th day after the transplantation.
as §13

Paddy rice = assay: Post-emergence test, crop safety; settings: in vivo, 3 weeks
From the text: as §9, §10, §11

Wheat = assay: Post-emergence test, crop safety; settings: in vivo, 3 weeks
From the text: as §9, §10, §11

## CCC[S@@+]([O-])c1c(C(F)(F)F)ccc(C(=O)Nc2nnc(C)o2)c1F
Euphorbia helioscopia; B 15 g a.i./ha
  Control effect of B applied alone in a corresponding dose (%): 34.3%
Euphorbia helioscopia; B 30 g a.i./ha
  Control effect of B applied alone in a corresponding dose (%): 55.4%

## CC1(C)CON(Cc2ccc(Cl)cc2Br)C1=O
Euphorbia helioscopia; B 60 g a.i./ha
  Control effect of B applied alone in a corresponding dose (%): 25.7%
Euphorbia helioscopia; B 120 g a.i./ha
  Control effect of B applied alone in a corresponding dose (%): 44.6%

## Nc1cc(Cl)nc(C(=O)O)c1Cl [Aminopyralid, aminopyralid]
Veronica [1]; B 30 g a.i./ha
  Control effect of B applied alone in a corresponding dose (%): 18.0%
Veronica [1]; B 60 g a.i./ha
  Control effect of B applied alone in a corresponding dose (%): 39.7%

## CCOC(=O)Cn1c(=O)sc2cccc(Cl)c21 [Benazolinethyl, benazolin-ethyl]
Veronica [1]; B 75 g a.i./ha
  Control effect of B applied alone in a corresponding dose (%): 24.0%
Veronica [1]; B 150 g a.i./ha
  Control effect of B applied alone in a corresponding dose (%): 35.2%

## Cc1nn(C)cc1C(=O)Oc1c(C(=O)c2ccc(C(F)(F)F)cc2S(C)(=O)=O)c(C)nn1C [Bipyrazone, bipyrazone]
Euphorbia helioscopia; B 7.5 g a.i./ha
  Control effect of B applied alone in a corresponding dose (%): 37.1%
Euphorbia helioscopia; B 15 g a.i./ha
  Control effect of B applied alone in a corresponding dose (%): 55.8%

## O=C(O)c1nc(Cl)ccc1Cl [Clopyralid, clopyralid]
Veronica [1]; B 45 g a.i./ha
  Control effect of B applied alone in a corresponding dose (%): 12.4%
Veronica [1]; B 90 g a.i./ha
  Control effect of B applied alone in a corresponding dose (%): 33.3%

## COC(=O)c1nc(-c2ccc(C(F)(F)F)c(OC)c2Cl)nc(N)c1OC [Compound 2]
Veronica [2]
  activity level of plant damage (growth control rate), Veronica: 9
Bidens tripartita; 75 g a.i./ha
  activity level, Bidens tripartita: 9
Monochoria vaginalis; 75 g a.i./ha
  activity level, Monochoria vaginalis: 9
Pontederia korsakowii; 75 g a.i./ha
  activity level, Pontederia korsakowii: 9
[3]
  activity level, Paddy rice: 0

## COc1c(N)nc(-c2ccc(Br)c(OC)c2F)nc1C(=O)SC [Compound 221]
Veronica [2]
  activity level of plant damage (growth control rate), Veronica: 9
Paddy rice
  activity level of plant damage (growth control rate), Paddy rice: 0
Wheat
  activity level of plant damage (growth control rate), Wheat: 0

## CCSC(=O)c1nc(-c2ccc(Br)c(OC)c2F)nc(N)c1OC [Compound 222]
Veronica [2]
  activity level of plant damage (growth control rate), Veronica: 9

## COC(=O)c1nc(-c2ccc(C(F)(F)F)c(OC(F)F)c2F)nc(N)c1OC [Compound 247]
Veronica [2]
  activity level of plant damage (growth control rate), Veronica: 9

## Cn1[nH]c(C2CC2)c(C(=O)c2ccc(C(F)(F)F)c(N3CCCCC3=O)c2Cl)c1=O [Cypyrafluone, cypyrafluone]
Euphorbia helioscopia; B 15 g a.i./ha
  Control effect of B applied alone in a corresponding dose (%): 34.7%
Euphorbia helioscopia; B 30 g a.i./ha
  Control effect of B applied alone in a corresponding dose (%): 55.2%

## CCn1ncc(C(=O)c2ccc(S(C)(=O)=O)c(COCC(F)(F)F)c2Cl)c1OC(=O)c1cn(C)nc1C [Fenpyrazone, fenpyrazone]
Euphorbia helioscopia; B 15 g a.i./ha
  Control effect of B applied alone in a corresponding dose (%): 34.3%
Euphorbia helioscopia; B 30 g a.i./ha
  Control effect of B applied alone in a corresponding dose (%): 60.0%

## COc1ncc(F)c2nc(S(=O)(=O)Nc3c(F)cccc3F)nn12 [Florasulam, florasulam]
Veronica [1]; B 3 g a.i./ha
  Control effect of B applied alone in a corresponding dose (%): 15.7%
Veronica [1]; B 6 g a.i./ha
  Control effect of B applied alone in a corresponding dose (%): 28.1%

## COc1c(Cl)ccc(-c2nc(C(=O)OCc3ccccc3)c(Cl)c(N)c2F)c1F [Florpyrauxifenbenzyl, florpyrauxifen-benzyl]
Veronica [1]; B 3 g a.i./ha
  Control effect of B applied alone in a corresponding dose (%): 20.1%
Veronica [1]; B 6 g a.i./ha
  Control effect of B applied alone in a corresponding dose (%): 45.8%

## CCCCCCC(C)OC(=O)COc1nc(F)c(Cl)c(N)c1Cl (stereo not shown) [Fluroxypyrmeptyl, fluroxypyr-meptyl]
Veronica [1]; B 60 g a.i./ha
  Control effect of B applied alone in a corresponding dose (%): 20.3%
Veronica [1]; B 120 g a.i./ha
  Control effect of B applied alone in a corresponding dose (%): 40.6%

## COC(=O)c1nc(-c2ccc(Cl)c(OC)c2F)cc(N)c1Cl [Halauxifenmethyl, halauxifen-methyl]
Veronica [1]; B 1.5 g a.i./ha
  Control effect of B applied alone in a corresponding dose (%): 22.8%
Veronica [1]; B 3 g a.i./ha
  Control effect of B applied alone in a corresponding dose (%): 43.1%

## Cc1cc(Cl)ccc1OCC(=O)OCCCCCC(C)C [MCPA-isooctyl]
Veronica [1]; B 150 g a.i./ha
  Control effect of B applied alone in a corresponding dose (%): 23.5%
Veronica [1]; B 300 g a.i./ha
  Control effect of B applied alone in a corresponding dose (%): 40.8%

## Nc1c(Cl)c(Cl)nc(C(=O)O)c1Cl [Picloram, picloram]
Veronica [1]; B 15 g a.i./ha
  Control effect of B applied alone in a corresponding dose (%): 15.7%
Veronica [1]; B 30 g a.i./ha
  Control effect of B applied alone in a corresponding dose (%): 30.8%

## Cc1cc(C)n(Cc2c(S(C)(=O)=O)ccc(C(=O)c3c(C)nn(C)c3OC(=O)c3cn(C)nc3C)c2Cl)n1 [Tripyrasulfone, tripyrasulfone]
Euphorbia helioscopia; B 15 g a.i./ha
  Control effect of B applied alone in a corresponding dose (%): 20.0%
Euphorbia helioscopia; B 30 g a.i./ha
  Control effect of B applied alone in a corresponding dose (%): 36.9%

## CCOC(=O)c1cnn(C)c1S(=O)(=O)NC(=O)Nc1nc(OC)cc(OC)n1 [pyrazosulfuron-ethyl, reference compound]
Bidens tripartita; 30 g a.i./ha
  activity level, Bidens tripartita: 4 (Level 4: growth control rate is greater than or equal to 30% and less than 50%)
Monochoria vaginalis; 30 g a.i./ha
  activity level, Monochoria vaginalis: 1 (Level 1: growth control rate is less than 10%)
Pontederia korsakowii; 30 g a.i./ha
  activity level, Pontederia korsakowii: 2 (Level 2: growth control rate is greater than or equal to 10% and less than 20%)
